The record followed here is US8969360B2, “Compounds useful as inhibitors of ATR kinase” (Vertex Pharmaceuticals Incorporated, priority 2013, dated 2015).

One assay deals with T1, ATR kinase (Homo sapiens, UniProt Q13535).
T1 construct: Assays were carried out at 25° C. in the presence of 5 nM full-length ATR
The experiment in a line: ATR Inhibition Assay (radioactive-phosphate incorporation). To be noted: Ki(app); 5 nM full-length ATR, 10 μM ATP, 800 μM target peptide, 25° C. Type of assay: biochemical. The essentials:
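Full-length ATR (5 nM) in 50 mM Tris/HCl pH 7.5, 10 mM MgCl2, 1 mM DTT, with 800 μM peptide substrate and 10 μM [γ-33P]ATP at 25 °C. Compounds (from 15 μM final, 3-fold dilutions, 7% DMSO) were preincubated 10 min; the reaction was stopped at 24 h. 33P incorporation was captured on phosphocellulose; Ki(app) was from non-linear regression of initial rates.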

The subject of assay [1] is HCT116 colorectal cancer cells. Put plainly: Cisplatin Sensitization Assay (96 h cell viability MTS). It counts as cell-based. The note with it: concentration of compound required to reduce the IC50 of Cisplatin alone by at least 3-fold; HCT116, 96 h MTS. The gist of the method: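 HCT116 cells received compound and cisplatin together as a full matrix of 2-fold dilutions, each from a 10 μM top final concentration. After 96 h at 37 °C and 5% CO2, viability was read by MTS (1 h, A490). The value is the compound concentration that lowers the cisplatin IC50 at least 3-fold.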

T1 sequence (Q13535 whole entry): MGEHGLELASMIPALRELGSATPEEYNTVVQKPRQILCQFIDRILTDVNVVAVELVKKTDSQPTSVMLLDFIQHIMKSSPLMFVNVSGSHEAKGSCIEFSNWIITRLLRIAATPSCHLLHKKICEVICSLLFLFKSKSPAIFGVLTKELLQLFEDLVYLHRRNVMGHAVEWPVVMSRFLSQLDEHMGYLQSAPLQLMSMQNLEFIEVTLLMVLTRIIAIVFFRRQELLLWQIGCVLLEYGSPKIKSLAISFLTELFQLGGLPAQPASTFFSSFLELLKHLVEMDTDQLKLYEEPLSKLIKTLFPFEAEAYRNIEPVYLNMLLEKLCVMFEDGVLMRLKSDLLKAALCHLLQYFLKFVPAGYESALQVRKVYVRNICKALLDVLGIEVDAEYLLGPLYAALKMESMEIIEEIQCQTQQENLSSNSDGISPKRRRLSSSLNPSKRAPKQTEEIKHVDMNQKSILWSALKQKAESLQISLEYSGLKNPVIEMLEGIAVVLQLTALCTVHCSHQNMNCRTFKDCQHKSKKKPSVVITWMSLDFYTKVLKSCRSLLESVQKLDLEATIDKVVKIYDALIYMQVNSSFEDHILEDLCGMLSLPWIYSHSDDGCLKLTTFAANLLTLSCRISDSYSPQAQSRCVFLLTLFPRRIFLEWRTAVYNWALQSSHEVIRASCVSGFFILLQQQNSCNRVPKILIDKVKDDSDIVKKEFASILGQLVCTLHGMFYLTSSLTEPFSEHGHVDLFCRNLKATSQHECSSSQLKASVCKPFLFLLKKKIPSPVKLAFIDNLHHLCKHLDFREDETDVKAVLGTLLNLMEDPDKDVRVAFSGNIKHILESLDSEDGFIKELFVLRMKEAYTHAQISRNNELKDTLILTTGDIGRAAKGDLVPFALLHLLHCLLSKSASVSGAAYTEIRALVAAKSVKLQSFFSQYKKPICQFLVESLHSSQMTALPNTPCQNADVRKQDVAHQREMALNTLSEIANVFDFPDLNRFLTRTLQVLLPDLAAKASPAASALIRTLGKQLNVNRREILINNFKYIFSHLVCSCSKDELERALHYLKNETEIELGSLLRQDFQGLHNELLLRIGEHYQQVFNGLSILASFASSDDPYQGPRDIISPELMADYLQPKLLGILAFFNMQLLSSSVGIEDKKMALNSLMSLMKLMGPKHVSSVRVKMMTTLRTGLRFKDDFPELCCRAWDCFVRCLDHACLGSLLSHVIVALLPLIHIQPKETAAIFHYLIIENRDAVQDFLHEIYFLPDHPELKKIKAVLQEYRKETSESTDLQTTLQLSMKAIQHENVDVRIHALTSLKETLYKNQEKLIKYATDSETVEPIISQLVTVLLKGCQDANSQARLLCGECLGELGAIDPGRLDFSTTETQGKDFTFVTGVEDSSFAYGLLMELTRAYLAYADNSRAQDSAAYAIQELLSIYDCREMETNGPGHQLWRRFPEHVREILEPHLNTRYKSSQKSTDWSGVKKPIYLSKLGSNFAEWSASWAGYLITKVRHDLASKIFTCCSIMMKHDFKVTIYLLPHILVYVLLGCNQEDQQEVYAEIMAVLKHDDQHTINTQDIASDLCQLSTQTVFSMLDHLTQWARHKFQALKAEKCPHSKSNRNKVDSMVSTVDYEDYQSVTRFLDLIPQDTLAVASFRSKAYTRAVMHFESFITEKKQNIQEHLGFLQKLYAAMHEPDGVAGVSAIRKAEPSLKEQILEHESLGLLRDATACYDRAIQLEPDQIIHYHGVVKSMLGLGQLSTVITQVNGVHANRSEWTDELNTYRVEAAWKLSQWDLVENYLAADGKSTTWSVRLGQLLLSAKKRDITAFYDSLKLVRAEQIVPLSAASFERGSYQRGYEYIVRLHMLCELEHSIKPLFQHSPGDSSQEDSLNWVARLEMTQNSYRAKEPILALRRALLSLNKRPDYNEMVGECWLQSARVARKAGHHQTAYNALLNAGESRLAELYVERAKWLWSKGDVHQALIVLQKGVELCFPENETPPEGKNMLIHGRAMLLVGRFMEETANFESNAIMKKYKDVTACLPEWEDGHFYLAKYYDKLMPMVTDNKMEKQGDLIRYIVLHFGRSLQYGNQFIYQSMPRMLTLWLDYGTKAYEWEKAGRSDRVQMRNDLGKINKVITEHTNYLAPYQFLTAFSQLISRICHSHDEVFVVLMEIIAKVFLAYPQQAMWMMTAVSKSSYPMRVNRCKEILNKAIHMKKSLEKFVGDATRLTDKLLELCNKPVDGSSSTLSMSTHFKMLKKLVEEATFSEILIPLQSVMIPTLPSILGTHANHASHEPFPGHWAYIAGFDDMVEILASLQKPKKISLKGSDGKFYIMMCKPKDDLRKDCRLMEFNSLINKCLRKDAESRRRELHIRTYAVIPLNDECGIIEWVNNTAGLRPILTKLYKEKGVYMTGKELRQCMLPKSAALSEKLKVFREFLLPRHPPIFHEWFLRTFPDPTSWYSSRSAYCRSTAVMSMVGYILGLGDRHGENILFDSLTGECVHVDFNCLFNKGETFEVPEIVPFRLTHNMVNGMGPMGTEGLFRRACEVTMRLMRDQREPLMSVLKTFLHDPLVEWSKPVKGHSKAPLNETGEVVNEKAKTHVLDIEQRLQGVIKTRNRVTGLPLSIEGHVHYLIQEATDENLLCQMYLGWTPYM

For `COc1ccncc1NC(=O)c1c(N)nn2ccc(N3CCNCC3)nc12` [I-O-76, 2-amino-N-(4-methoxypyridin-3-yl)-5-(piperazin-1-yl)pyrazolo[1,5-a]pyrimidine-3-carboxamide], the Ki on ATR kinase is 10 to 1000 nM. Besides, in assay [1], the “Synergy with Cisplatin” value is given as “++ (Compounds with a Cisplatin sensitization value>0.02 μM but <0.2 μM are marked with “++.”)”.

For `COc1ccncc1NC(=O)c1c(N)nn2ccc(N3CCNC(C)C3)nc12` (stereo not shown) [I-O-77, 2-amino-N-(4-methoxypyridin-3-yl)-5-(3-methylpiperazin-1-yl)pyrazolo[1,5-a]pyrimidine-3-carboxamide], the Ki on ATR kinase is 10 to 1000 nM. Also, the “Synergy with Cisplatin” value in assay [1] is “++ (Compounds with a Cisplatin sensitization value>0.02 μM but <0.2 μM are marked with “++.”)”.

With `COc1ccncc1NC(=O)c1c(N)nn2ccc(N3CCN(C)CC3)nc12` [I-O-78, 2-amino-N-(4-methoxypyridin-3-yl)-5-(4-methylpiperazin-1-yl)pyrazolo[1,5-a]pyrimidine-3-carboxamide], the Ki on ATR kinase lay within 10 to 1000 nM. Besides, in assay [1], the “Synergy with Cisplatin” value was “+ (Compounds with a Cisplatin sensitization value >0.2 μM but <5 μM are marked with “+.”)”.

For the compound `CC(C)Oc1ccncc1NC(=O)c1c(N)nn2ccc(N3CCN(C)CC3)nc12` [I-O-79, 2-amino-N-(4-isopropoxypyridin-3-yl)-5-(4-methylpiperazin-1-yl)pyrazolo[1,5-a]pyrimidine-3-carboxamide], at ATR kinase, the Ki lay in the range of 1000 to 5000 nM. Further, the “Synergy with Cisplatin” value in assay [1] is listed as “+ (Compounds with a Cisplatin sensitization value >0.2 μM but <5 μM are marked with “+.”)”.

As to `COc1ccncc1NC(=O)c1c(N)nn2ccc(N3CCC(N(C)C)CC3)nc12` [I-O-80, 2-amino-5-(4-(dimethylamino)piperidin-1-yl)-N-(4-methoxypyridin-3-yl)pyrazolo[1,5-a]pyrimidine-3-carboxamide], the Ki on ATR kinase lay within 10 to 1000 nM. Moreover, the “Synergy with Cisplatin” value in assay [1] is “+ (Compounds with a Cisplatin sensitization value >0.2 μM but <5 μM are marked with “+.”)”.
